Test results taken from PMC7876106 (Scientific Reports, 2021).

How the values were obtained:
[1] = system: LOX cells; assay: TIF assay (IF FISH, γH2AX or 53BP1 with telomere DNA) in LOX cells; type: cell-based, human; settings: 2 μM, 3 days
Protocol: (§1) Mei et al, 2020 TERRA Requires TRF2 GAR Domain […]
Indirect immunofluorescence (IF) combined with fluorescence in situ hybridization (FISH) analysis for telomere dysfunction was performed as described 4 with some modifications. Briefly, cells grown on coverslips were fixed for 15 min in 2% paraformaldehyde/1x PBS at RT, followed by permeabilization for 10 min in 1x PBS/0.5% Triton X-100 at RT. After washing with 1x PBS, cells were incubated for 60 min in blocking solution (0.5% BSA, 0.2% fish gelatin, 0.1% Triton X-100, 1 mM EDTA in 1x PBS) before immuno-staining. Primary antibodies were prepared in blocking solution at following dilutions: anti-53BP1 (1:500, IHC-00001; Bethyl Laboratories) and γH2AX (1:2,000, A300-081A; Bethyl Laboratories). After IF, cells were fixed in 4% paraformaldehyde in 1x PBS for 10 min, washed in 1x PBS, dehydrated in ethanol series (70%, 95%, 100%), and air-dried. Coverslips were denatured for 5 min at 80-85° C in hybridization mix [70% formamide, 10 mM Tris-HCl, pH 7.2, and 0.5% blocking solution (Roche)] containing telomeric PNA-Cy3-(CCCTAA)3 probe, and hybridization was continued for 2 hrs at room temperature in the dark moisturized chambers. Coverslips were washed twice for 15 min each with 70% formamide, 10 mM Tris-HCl (pH 7.2), and 0.1% BSA, and followed by three washes for 5 min each with 0.15 M NaCl, 0.1 M Tris-HCl (pH 7.2), and 0.08% Tween-20. Nuclei were counterstained with 0.1 µg/ml DAPI in blocking solution and coverslips mounted with VectorShield (Vector Laboratories). RNA FISH was performed as previously described 1.
Images were captured with a 100x lens on a Nikon E600 Upright microscope (Nikon […]
Instruments, Inc., Melville, NY) with ImagePro Plus software (Media Cybernetics, Silver Spring, MD) for image processing. Cells with > 5 53BP1/γH2AX foci co-localizing with telomere DNA foci were scored as positive for TIF. The quantification was generated from at least three independent Immuno-FISH experiments. […]
0.1 μg/mL DAPI in 1x PBS and slides were mounted with VectorShield (Vector Laboratories).
Images were taken with a 100x lens on a Nikon E600 Upright microscope (Nikon Instruments) using ImagePro Plus software (Media Cybernetics) for image processing. Statistical analysis was performed using two-tailed Student t Test.

[2] = system: TRF2 interaction with TERRA; assay: RNA-ChIP assay of TRF2-TERRA interaction in LOX cells; type: cell-based; settings: Homo sapiens, 24 h, read-out: inhibition of TRF2 interaction with TERRA relative to PP control
Protocol: as §1
blot procedures. Northern blot was performed as previously described with some modifications […]
2. Briefly, 6 µg RNA was denatured in NorthernMax formaldehyde loading dye (Ambion) for 15 […]
min at 65 °C and separated by 1.2% agarose formamide gel in 1X Mops buffer (Ambion) at […]
5V/cm for 2-3 hrs. RNA samples were transferred to GeneScreen Plus blotting membranes […]
(Perkin-Elmer) with 10X SSC and UV cross-linked onto membranes at 125 mJ in UV […]
Stratalinker 2400 (Stratagene). The hybridization was performed using a 32P-labeled TERRA […]
probe in Church buffer (0.5 N Na-phosphate, pH 7.2, 7% SDS, 1 mM EDTA, 1% BSA) for […]
overnight at 50 °C. The blot was washed twice in 0.2 N Na-phosphate, 2% SDS, and 1 mM […]
EDTA at room temperature and once in 0.1 N Na-phosphate, 2% SDS, and 1 mM EDTA at […]
50 °C. Images were collected by phosphor- imager (Amersham Biosciences), and were […]
visualized with a Typhoon 9410 Imager (GE Healthcare) and quantified with ImageQuant TL […]
Genomic DNA was isolated from cells using a genomic DNA purification kit (Promega) and digested with AluI and MboI. Digested genomic DNA was purified by phenol/choloroform extraction and quantified using a Qubit 4 Fluorometer (Thermal Scientific). […] The DNA was transferred to GeneScreen Plus blotting membranes (Perkin-Elmer) and analyzed by Southern blot. […]

[3] = system: TERRA in LOX cells; assay: TERRA levels by RNA dot blot and Northern blot in LOX cells; type: cell-based, human; settings: 2 μM, 3 days; for accumulation of TERRA as a shorter form: Northern blot

SMILES | increase in telomere-associated γH2AX compared to PP treatment [1] | level of γH2AX or 53BP1 associated telomere dysfunction-induced foci (TIFs) [1] | inhibition at 2 µM [2] | accumulation of TERRA as a shorter form [3] | total TERRA levels relative to PP control ([3]; RNA dot blot and Northern blot)
CN(C)c1ccc(Nc2c3ccc(NC(=O)CCN4CCCC4)cc3nc3cc(NC(=O)CCN4CCCC4)ccc23)cc1 [BRACO-19] | ~ three fold increase | moderate level | ~50% | not observed | –
CCc1c(C)c2cc3nc(cc4nc(cc5c(CC)c(C)c(cc1[nH]2)n5C)C(C)=C4CCC(=O)O)C(CCC(=O)O)=C3C [NMM, N-methyl mesoporphyrin IX] | ~ fivefold increase | high level | ~50% | accumulated as a shorter form | reduced total TERRA levels
